Common to all, as to assay: ≥ marks a high value that may be exact or a test limit, other limits are often not marked, values filed in µg/mL are converted to µM
For test [1], the system named is Pseudomonas aeruginosa Ps4.
For test [2], the system named is Candida albicans ATCC 10231.
For test [3], the system named is Cryptococcus neoformans ATCC 32045.
In test [4] the test system is Escherichia coli ATCC 2592.
Test [5] has as its system Pseudomonas aeruginosa ATCC 10145.
For test [6], the system named is Staphylococcus aureus ATCC 33591.
The subject of test [7] is Escherichia coli ATCC 11775.
Test [8] concerns Staphylococcus aureus ATCC 12600.

Converted amounts (≈) assume the structure as drawn. Some results are limits rather than exact numbers.

What is called MIC is the lowest concentration that inhibits growth of the organism. A low value points to greater potency. `CC[C@H](C)[C@H](NC(=O)[C@H](CC(N)=O)NC(=O)[C@H](CCCN=C(N)N)NC(=O)[C@H](CCC(N)=O)NC(=O)[C@H](Cc1c[nH]c2ccccc12)NC(=O)[C@@H](N)Cc1ccccc1)C(=O)N[C@@H](CCCN=C(N)N)C(=O)N[C@H](C(=O)N[C@@H](CCCN=C(N)N)C(N)=O)C(C)C` [FWQRNIRVR]: the MIC in test [1] is at least 196 µM.

As to `CC[C@H](C)[C@H](NC(=O)[C@H](CC(N)=O)NC(=O)[C@H](CCCN=C(N)N)NC(=O)[C@H](CCC(N)=O)NC(=O)[C@H](Cc1c[nH]c2ccccc12)NC(=O)[C@@H](N)CCCN=C(N)N)C(=O)N[C@@H](CCCN=C(N)N)C(=O)N[C@@H](CCCCN)C(=O)N[C@H](C(=O)N[C@@H](CCCN=C(N)N)C(=O)N[C@@H](CCCN=C(N)N)C(N)=O)C(C)C` [RWQRNIRKVRR], the MIC in test [1] is at least 159 µM.

Regarding `CC[C@H](C)[C@H](NC(=O)[C@H](CC(N)=O)NC(=O)[C@H](CCCN=C(N)N)NC(=O)[C@H](CCC(N)=O)NC(=O)[C@H](Cc1c[nH]c2ccccc12)NC(=O)[C@H](Cc1ccccc1)NC(=O)[C@@H](N)CS)C(=O)N[C@@H](CCCN=C(N)N)C(=O)N[C@@H](CCCCN)C(=O)N[C@H](C(=O)N[C@@H](CS)C(=O)N[C@@H](CCCN=C(N)N)C(N)=O)C(C)C` [CFWQRNIRKVCR], the minimal inhibitory concentration (MIC) in test [1] was at least 155 µM.

The compound `CC[C@H](C)[C@H](NC(=O)[C@H](CC(N)=O)NC(=O)[C@H](CCCN=C(N)N)NC(=O)[C@@H](NC(=O)[C@H](Cc1c[nH]c2ccccc12)NC(=O)[C@@H](N)Cc1ccccc1)[C@@H](C)CC)C(=O)N[C@@H](CCCN=C(N)N)C(=O)N[C@@H](CCCCN)C(=O)N[C@H](C(=O)N[C@@H](CCCN=C(N)N)C(N)=O)C(C)C` [FWIRNIRKVR] yielded an MIC in test [1] of at least 180 µM.

On to `CC(C)C[C@H](NC(=O)[C@H](CCCCN)NC(=O)[C@H](CC(C)C)NC(=O)[C@H](CCCCN)NC(=O)[C@H](CC(C)C)NC(=O)[C@H](CCCCN)NC(=O)[C@H](CC(C)C)NC(=O)[C@H](CCCCN)NC(=O)[C@H](CC(C)C)NC(=O)[C@H](CCCCN)NC(=O)[C@H](CC(C)C)NC(=O)[C@H](CCCCN)NC(=O)[C@H](CC(C)C)NC(=O)[C@H](CCCCN)NC(=O)[C@H](CC(C)C)NC(=O)[C@H](CCCCN)NC(=O)[C@@H](N)CC(C)C)C(=O)N[C@@H](CCCCN)C(=O)O` [LKLKLKLKLKLKLKLKLK], for which the MIC in test [2] was 161 µM (≈ 354 µg/mL); in test [3] it was 20.3 µM (≈ 44.5 µg/mL); in test [4] it was at least 40.2 µM; in test [5] it was at least 36.5 µM; in test [6], at least 161 µM.

On to `CC[C@H](C)[C@H](NC(=O)[C@H](CCCN=C(N)N)NC(=O)[C@H](CCCN=C(N)N)NC(=O)[C@H](CCCN=C(N)N)NC(=O)[C@@H](NC(=O)[C@H](CCCCN)NC(=O)[C@H](CCCN=C(N)N)NC(=O)[C@@H](NC(=O)[C@H](CC(N)=O)NC(=O)[C@H](CCCN=C(N)N)NC(=O)[C@H](CCC(N)=O)NC(=O)[C@H](Cc1c[nH]c2ccccc12)NC(=O)[C@@H](N)Cc1ccccc1)[C@@H](C)CC)C(C)C)C(N)=O` [FWQRNIRKVRRRI], for which the MIC in test [1] is at least 137 µM.

Turning to `CC[C@H](C)[C@H](NC(=O)[C@H](CC(N)=O)NC(=O)[C@H](CCCN=C(N)N)NC(=O)[C@@H](NC(=O)[C@H](Cc1c[nH]c2ccccc12)NC(=O)[C@@H](N)Cc1ccccc1)C(C)C)C(=O)N[C@@H](CCCN=C(N)N)C(=O)N[C@@H](CCCCN)C(=O)N[C@H](C(=O)N[C@@H](CCCN=C(N)N)C(N)=O)C(C)C` [FWVRNIRKVR], the minimum inhibitory concentration (MIC) in test [1] was at least 250 µM.

With `C[C@H](NC(=O)[C@H](Cc1ccccc1)NC(=O)[C@H](CCCCN)NC(=O)[C@H](CCCCN)NC(=O)[C@H](C)NC(=O)[C@H](Cc1ccccc1)NC(=O)[C@H](CCCCN)NC(=O)[C@H](CCCCN)NC(=O)[C@H](C)NC(=O)[C@H](Cc1ccccc1)NC(=O)[C@H](CCCCN)NC(=O)[C@H](CCCCN)NC(=O)[C@H](C)NC(=O)[C@H](Cc1ccccc1)NC(=O)[C@H](CCCCN)NC(=O)[C@H](CCCCN)NC(=O)[C@H](C)NC(=O)[C@H](Cc1ccccc1)NC(=O)[C@H](CCCCN)NC(=O)[C@H](CCCCN)NC(=O)[C@H](C)NC(=O)[C@H](Cc1ccccc1)NC(=O)[C@H](CCCCN)NC(=O)[C@@H](N)CCCCN)C(=O)O` [KKFAKKFAKKFAKKFAKKFAKKFA], the MIC in test [2] is 61.7 µM (≈ 177 µg/mL); in test [3] it was 15.5 µM (≈ 44.5 µg/mL); in test [4], 7.9 µM (≈ 22.6 µg/mL); in test [5] it was 21.6 µM (≈ 62 µg/mL); in test [6], at least 87.2 µM.

With `C[C@H](NC(=O)[C@H](C)NC(=O)[C@H](CCCCN)NC(=O)[C@H](CCCCN)NC(=O)[C@H](C)NC(=O)[C@H](C)NC(=O)[C@H](CCCCN)NC(=O)[C@H](CCCCN)NC(=O)[C@H](C)NC(=O)[C@H](C)NC(=O)[C@H](CCCCN)NC(=O)[C@H](CCCCN)NC(=O)[C@H](C)NC(=O)[C@H](C)NC(=O)[C@H](CCCCN)NC(=O)[C@H](CCCCN)NC(=O)[C@H](C)NC(=O)[C@H](C)NC(=O)[C@H](CCCCN)NC(=O)[C@H](CCCCN)NC(=O)[C@H](C)NC(=O)[C@H](C)NC(=O)[C@H](CCCCN)NC(=O)[C@H](CCCCN)NC(=O)[C@H](C)NC(=O)[C@H](C)NC(=O)[C@@H](N)CCCCN)C(=O)N[C@@H](CCCCN)C(=O)O` [KAAKKAAKKAAKKAAKKAAKKAAKKAAK], the MIC in test [2] was over 178 µM; in test [3] it was 31.4 µM (≈ 88 µg/mL); in test [4], at least 178 µM; in test [5] it was at least 89 µM; in test [6], at least 178 µM.

On to `CC(C)C[C@H](NC(=O)[C@H](CCCCN)NC(=O)[C@H](CC(C)C)NC(=O)[C@H](CCCCN)NC(=O)[C@H](CC(C)C)NC(=O)[C@H](CCCCN)NC(=O)[C@H](CC(C)C)NC(=O)[C@H](CCCCN)NC(=O)[C@H](CC(C)C)NC(=O)[C@H](CCCCN)NC(=O)[C@H](CC(C)C)NC(=O)[C@H](CCCCN)NC(=O)[C@H](CC(C)C)NC(=O)[C@H](CCCCN)NC(=O)[C@H](CC(C)C)NC(=O)[C@H](CCCCN)NC(=O)[C@H](CC(C)C)NC(=O)[C@H](CCCCN)NC(=O)[C@@H](N)CC(C)C)C(=O)N[C@@H](CCCCN)C(=O)O` [LKLKLKLKLKLKLKLKLKLK], for which the MIC in test [2] was 145 µM (≈ 354 µg/mL); in test [3], at least 36.2 µM; in test [4], at least 79.6 µM; in test [5], at least 51.4 µM; in test [6], at least 72.7 µM.

For the compound `CC[C@H](C)[C@H](NC(=O)[C@H](CC(N)=O)NC(=O)[C@H](CCCN=C(N)N)NC(=O)[C@H](CCC(N)=O)NC(=O)[C@H](Cc1c[nH]c2ccccc12)NC(=O)[C@H](CCCN=C(N)N)NC(=O)[C@@H](N)CCCN=C(N)N)C(=O)N[C@@H](CCCN=C(N)N)C(=O)N[C@@H](CCCCN)C(=O)N[C@H](C(=O)N[C@@H](CCCN=C(N)N)C(=O)N[C@@H](CCCN=C(N)N)C(N)=O)C(C)C` [RRWQRNIRKVRR], the minimum inhibitory concentration (MIC) in test [1] is at least 145 µM.

For `CC[C@H](C)[C@H](N)C(=O)N[C@H](C(=O)N1CCC[C@H]1C(=O)N[C@@H](CC(C)C)C(=O)N1CCC[C@H]1C(=O)N[C@@H](CC(C)C)C(=O)NCC(=O)N[C@@H](Cc1ccc(O)cc1)C(=O)N[C@@H](Cc1ccccc1)C(=O)N[C@@H](C)C(=O)N[C@@H](CCCCN)C(=O)N[C@@H](CCCCN)C(=O)N[C@H](C(=O)O)[C@@H](C)O)[C@@H](C)CC` [IIPLPLGYFAKKT], the figures for the MIC in test [7] and in test [8] were 3 µM (≈ 4.38 µg/mL) and 6 µM (≈ 8.76 µg/mL), respectively.

Take `CC(C)C[C@H](NC(=O)[C@H](C)NC(=O)[C@H](CC(C)C)NC(=O)[C@H](C)NC(=O)[C@H](CC(C)C)NC(=O)[C@H](C)NC(=O)[C@H](CC(C)C)NC(=O)[C@H](C)NC(=O)[C@H](CC(C)C)NC(=O)[C@H](C)NC(=O)[C@H](CC(C)C)NC(=O)[C@H](C)NC(=O)[C@H](CC(C)C)NC(=O)[C@H](C)NC(=O)[C@H](CC(C)C)NC(=O)[C@H](C)NC(=O)[C@H](CC(C)C)NC(=O)[C@H](C)NC(=O)[C@H](CC(C)C)NC(=O)[C@H](C)NC(=O)[C@@H](N)CC(C)C)C(=O)N[C@@H](C)C(=O)O` [LALALALALALALALALALALA]: the minimal inhibitory concentration (MIC) in test [2] is over 245 µM; in test [3], at least 43.1 µM; in test [4], at least 86.5 µM; in test [5], at least 122 µM; in test [6] it was at least 86.5 µM.

As to `NCCCC[C@H](NC(=O)[C@H](Cc1ccccc1)NC(=O)[C@H](CCCCN)NC(=O)[C@H](CCCCN)NC(=O)[C@H](Cc1ccccc1)NC(=O)[C@H](CCCCN)NC(=O)[C@H](CCCCN)NC(=O)[C@H](Cc1ccccc1)NC(=O)[C@H](CCCCN)NC(=O)[C@H](CCCCN)NC(=O)[C@H](Cc1ccccc1)NC(=O)[C@H](CCCCN)NC(=O)[C@H](CCCCN)NC(=O)[C@H](Cc1ccccc1)NC(=O)[C@H](CCCCN)NC(=O)[C@H](CCCCN)NC(=O)[C@H](Cc1ccccc1)NC(=O)[C@@H](N)CCCCN)C(=O)O` [KFKKFKKFKKFKKFKKFK], the minimal inhibitory concentration (MIC) is 145 µM (≈ 354 µg/mL) in test [2]; 20.4 µM (≈ 49.8 µg/mL) in test [3]; at least 36.1 µM in test [4]; at least 51.2 µM in test [5]; at least 205 µM in test [6].
